# Laboratory results reported in paper PMC7894426, “Influence of verapamil on the pharmacokinetics of rotundic acid in rats and its potential mechanism” (Pharmaceutical Biology, 2021).
# Target: T1, CYP1A2 (Homo sapiens, UniProt P05177)
# T1 construct: purchased Research Institute for Liver Disease (Shanghai) Co., Ltd
# T1 sequence (P05177 1-516): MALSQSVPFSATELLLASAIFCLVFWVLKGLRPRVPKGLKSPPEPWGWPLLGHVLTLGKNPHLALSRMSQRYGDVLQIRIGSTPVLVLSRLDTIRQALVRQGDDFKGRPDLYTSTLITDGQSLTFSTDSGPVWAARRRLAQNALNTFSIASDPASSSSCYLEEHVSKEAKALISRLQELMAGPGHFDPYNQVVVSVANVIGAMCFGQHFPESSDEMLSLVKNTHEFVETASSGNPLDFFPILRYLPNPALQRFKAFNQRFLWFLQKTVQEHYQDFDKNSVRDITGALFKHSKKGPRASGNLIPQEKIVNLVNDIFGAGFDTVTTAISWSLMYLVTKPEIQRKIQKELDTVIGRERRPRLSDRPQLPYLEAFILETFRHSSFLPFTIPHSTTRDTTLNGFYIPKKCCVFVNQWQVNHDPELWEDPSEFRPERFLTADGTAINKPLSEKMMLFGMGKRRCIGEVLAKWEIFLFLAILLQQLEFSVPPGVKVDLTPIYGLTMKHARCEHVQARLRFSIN
# Test: Metabolic depletion of RA by rhCYP1A2
# Format: in vitro ADME
# Conditions: rhCYP1A2 25 pM, RA 2 µM, 30 min
# Description: The metabolic stability of RA was evaluated against five rhCYPs (1A2, 2C8, 2C9, 2D6 and 3A4). Incubation was taken place in 0.1 M sodium phosphate buffer (pH 7.4) containing 5 mM MgCl2, 1 mM NADPH, and 25 pM rhCYP enzyme protein at 37 °C in a total volume of 1 mL. After pre-incubated for 5 min, the reactions were started by the addition of RA methanol solution (final concentration of 2 µM). Aliquots of 50 µL incubation solution were collected from the reaction at 0, 5, 10, 20 and 30 min, and quenched with 50 µL ice-cold methanol (containing 0.5% formic acid) and 100 µL ice-cold acetonitrile containing IS (10 ng/mL). The heat-inactivated rhCYP3A4 were used as negative controls. All reactions were conducted in triplicate, followed by LC-MS/MS analysis. Results presented in percentage of drug remaining in incubation starting at 100% at time zero.
structure (smiles),measurement,value
"C[C@@H]1CC[C@]2(C(=O)O)CC[C@]3(C)C(=CC[C@@H]4[C@@]5(C)CC[C@H](O)[C@@](C)(CO)[C@@H]5CC[C@]43C)[C@@H]2[C@]1(C)O [RA, Rotundic acid]",metabolism of RA (substrate depletion),hardly metabolized
